The results in this text go back to US20170072005A1, “COMBINATIONS OF NMDAR MODULATING COMPOUNDS” (NORTHWESTERN UNIVERSITY, priority 2014, published 2017).

Entries after “also recorded” stand apart in the source; their conditions may differ. Peptide text beside a SMILES is read from it.

Format in all cases: in vivo
Data set [1] relates to 2-3 month old male Sprague Dawley rats. The experiment in a line: Stereotypy behaviour (circling and head weaving) in the open field. On the procedure: Vehicle treated animals received saline vehicle injections instead of GLYX-13 and ketamine injections. Animals were placed into the open field immediately after the final dose, and behaviour was analysed for 20 min. N=8-12.

Another data set deals with somatosensory cortex. The experiment in a line: Attenuation in somatosensory cortex with GLYX-13 pre-treatment followed by ketamine (FIG. 4).
For data set [2], the system named is adult male C57BL/6 male mice. The data set can be described thus: Novel object recognition test (NOR), discrimination index. On the procedure:
The discrimination index is calculated using the following formula: (time spent exploring novel object−time spent exploring familiar object)/(total time spent in exploring both the novel and familiar objects).
Novel Object recognition Test (“NOR”) testing in mice was adapted from (Hashimoto K, Fujita Y, Shimizu E, Iyo M (2005). Phencyclidine-induced cognitive deficits in mice are improved by subsequent subchronic administration of clozapine, but not haloperidol. European journal of pharmacology 519(1-2): 114-117). See also, e.g., Rajagopal, et al., Current Pharmaceutical Design 2014, 20, 1. The NOR box is an open box made out of Plexiglas (52 cm L; 52 cm W; 31 cm H). The dimensions of the box we used for mice was identical to the one used for rats. The box was positioned approximately 30 cm above the floor. The walls of the box have white background, as opposed to the black background in the rat NOR studies. […] Three days prior to testing, mice were habituated to the empty NOR arena for an hour. The NOR test in mice is similar to that previously employed to study rat NOR except that the acquisition and retention trials were 10 min in duration, followed by an intertrial interval (ITI) of 24 hours during which the mice were returned to their home cages, whereas in rats, the acquisition and retention trials were three min in duration separated by a one min ITI (Horiguchi M, Meltzer HY (2012). The role of 5-HT1A receptors in phencyclidine (PCP)-induced novel object recognition (NOR) deficit in rats. Psychopharmacology 221(2): 205-215). We compared 3, 5, and 10 min times for acquisition and retention trial explorations and found 10 minutes to be optimal for reliable data collection. Both trials were recorded for blind scoring later on.
All data are expressed as mean±S.E.M. Exploration data were analysed by a two-way analysis of variance (ANOVA). This detected the main effect of drug treatment, the main effect of task, and the interaction between drug treatment and object exploration. When a significant effect was found, further analysis by a post hoc Student's t-test was performed to compare the times spent exploring the novel and familiar object. The primary endpoint was the discrimination index (DI). The DI (novel-familiar/novel+familiar) data were analysed using one-way ANOVA followed by the Bonferroni test when a significant effect was detected by the ANOVA.

In the case of `CC(O)C(N)C(=O)N1CCCC1C(=O)N1CCCC1C(=O)NC(C(N)=O)C(C)O` (stereo not shown) [GLYX-13] (H-TPPT-NH2; configuration not given here), in data set [1] (GLYX-13 3 mg/kg iv 30 min before ketamine 10 mg/kg iv, behaviour analysed for 20 min), the “Number of stereotypy behaviour (circling and head weaving), inhibition of ketamine-induced stereotypy” value is on record as “inhibits ketamine (10 mg/kg iv) induced stereotypy”. The “Attenuation in somatosensory cortex” value in the data set with somatosensory cortex (pre-treatment with 3 mpk GLYX-13 followed by ketamine) and in the data set with somatosensory cortex (pre-treatment with 30 mpk GLYX-13 followed by ketamine) was “significant attenuation” throughout. In addition, in data set [2] (GLYX-13 3 mg/kg iv 30 min before ketamine 10 mg/kg sc, tested 20 min later, p<0.01 vs ketamine group), the “Discrimination index (DI) in novel object recognition, reversal of acute ketamine-induced impairment” value was “reverses acute ketamine (10 mg/kg sc) induced impairment in novel object recognition; also recorded: significant reversal in DI compared with ketamine group”. The “Discrimination index (DI) in novel object recognition, reversal of chronic ketamine-induced impairment” value in data set [2] (mice pre-treated with ketamine 30 mg/kg IP twice daily for 7 days, GLYX-13 1 mg/kg IV 1 hr before testing, p<0.001 vs ketamine group) was “reverses chronic ketamine-induced impairment in novel object recognition; also recorded: significant reversal in DI compared with ketamine group”. Moreover, in data set [2] (mice pretreated with PCP 10 mg/kg IP twice daily for 7 days, GLYX-13 1 mg/kg IV 1 hr before testing, p<0.001 vs PCP group), the “Discrimination index (DI) in novel object recognition, reversal of chronic PCP-induced impairment” value is recorded as “reverses chronic phencyclidine-induced impairment in novel object recognition; also recorded: significant reversal in DI compared with PCP group”.
On to `c1ccc(C2(N3CCCCC3)CCCCC2)cc1` [PCP, phencyclidine, reference compound], for which the “Discrimination index (DI) in novel object recognition, effect of chronic PCP” value in data set [2] (PCP 10 mg/kg IP twice daily for 7 days, then saline vehicle 1 hr before testing, p<0.001 vs vehicle group) is recorded as “significant decrease in DI compared with the vehicle group”.
For `CNC1(c2ccccc2Cl)CCCCC1=O` (stereo not shown) [ketamine, reference compound], the “Number of stereotypy behaviour (circling and head weaving), effect of ketamine” value in data set [1] (ketamine 10 mg/kg iv, open field, 20 min) is recorded as “induced stereotypy”. Besides, in data set [2] (ketamine 10 mg/kg sc, tested 20 min later, p<0.0001 vs vehicle group), the “Discrimination index (DI) in novel object recognition, effect of acute ketamine” value was “significant decrease in DI compared with the vehicle group”. Further, in data set [2] (ketamine 30 mg/kg IP twice daily for 7 days, then saline vehicle 1 hr before testing, p<0.001 vs vehicle group), the “Discrimination index (DI) in novel object recognition, effect of chronic ketamine” value is reported as “significant decrease in DI compared with the vehicle group”.
